# Results reported in the SangsterLogP compilation.
row,logP,Compound
1,3.57,C#CCOc1cc(OC(=O)N2CCC(F)(F)CC2)c(Cl)cc1Cl
2,2.98,O=C(Oc1cc(O)c(Cl)cc1Cl)N1CCCC1
3,3.95,COC(=O)c1cc(OC(=O)N2CCCC2)c(Cl)cc1Cl
4,3.42,C#CCOc1cc(OC(=O)N2CCC(F)(F)C2)c(Cl)cc1Cl
5,5.04,COC(=O)c1cc(Oc2ccc(C(F)(F)F)cc2Cl)ccc1Cl
6,3.38,O=C(Oc1ccc(Cl)cc1)N1CCCC1
7,3.82,C#CCOc1cc(OC(=O)N2CCCC2)c(Cl)cc1Cl
8,4.54,COC(=O)CC(C)(N=O)c1cc(Oc2ccc(C(F)(F)F)cc2Cl)ccc1[N+](=O)[O-] (stereo not drawn)
9,2.93,C#CCOC1=Nc2ccc(OC(=O)N3CCCC3)cc2OC1
10,4.27,O=C(O)COC(=O)c1cc(Oc2ccc(C(F)(F)F)cc2Cl)ccc1[N+](=O)[O-]
11,4.54,C=COC(=O)[C@@H](C)Oc1cc(Oc2ccc(C(F)(F)F)cc2Cl)ccc1[N+](=O)[O-]
12,4.2,CC(C)OC(=O)c1cc(OC(=O)N2CCCC2)c(F)cc1Cl
13,4.67,CC(C)OC(=O)c1cc(OC(=O)N2CCCC2)c(Cl)cc1Cl
14,3.65,COC(=O)c1cc(S(=O)c2ccc(C(F)(F)F)cc2Cl)ccc1[N+](=O)[O-] (stereo not drawn)
15,4.21,COC(=O)c1cc(Oc2cc(C(F)(F)F)ccc2Cl)ccc1[N+](=O)[O-]
16,4.33,O=[N+]([O-])c1ccc(Oc2ccc(C(F)(F)F)cc2Cl)cc1Oc1ccoc1
17,3.13,O=C(Oc1ccccc1Cl)N1CCCC1
18,3.57,COC(=O)c1cc(S(=O)(=O)c2ccc(C(F)(F)F)cc2Cl)ccc1[N+](=O)[O-]
19,3.95,C#CCOc1cc(OC(=O)N(CC)CC)c(Cl)cc1Cl
20,2.73,O=C(Oc1ccccc1)N1CCCC1
21,4.4,Cc1cccc(Oc2ccc([N+](=O)[O-])cc2)c1
22,4.25,C#CCOc1cc(OC(=O)N2CCCCC2)c(Cl)cc1Cl

row,Compound,logP
1,COC(=O)c1cc(Oc2ccc(C(F)(F)F)cc2Cl)ccc1[N+](=O)[O-],4.26
2,O=[N+]([O-])c1ccc(Oc2ccc(Cl)cc2Cl)cc1,4.64
3,O=[N+]([O-])c1ccc(Oc2ccc(C(F)(F)F)cc2Cl)cc1,4.54
4,O=C(Oc1ccc(Cl)cc1Cl)N1CCCC1,3.94
5,Nc1c([N+](=O)[O-])ccc(Oc2ccccc2)c1Cl,4.04
6,CCOC(=O)C(C)OC(=O)c1cc(Oc2ccc(C(F)(F)F)cc2Cl)ccc1[N+](=O)[O-] (stereo not drawn),4.81
